Data published in patent publication US20240150424A1, “DIRECTED CHEMICAL CONJUGATE OF GLUCAGON-LIKE PEPTIDE-2 MUTANT, AND USE THEREOF” (PEG-BIO BIOPHARM CO.,LTD.(CHONGQING), priority 2021, published 2024).
Starred links: 1 amine or outer side, 2 acyl side, 3 side chain; linkers in the order of their positions; H or OH if unused. Non-standard residues stand in square brackets, D forms with d. Residues, ends and D or L forms follow the SMILES beside them. Groups on a side chain read outwards from the residue. No end group written: not given here. *: point of attachment. C18 diacid = O=C(O)CCCCCCCCCCCCCCCCC(=O)*; γGlu = O=C(O)[C@H](CCC(=O)[*:2])N[*:1]; AEEA = NCCOCCOCC(=O)O; Aib = CC(C)(N)C(=O)O

How the values were obtained:
GLP-2R = target: T1, GLP-2R (Homo sapiens, UniProt O95838); test: In vitro activity (cAMP) assay of glucagon-like peptide-2 mutants in HEK-293-GLP-2R cells; assay type: cell-based; settings: for in vitro activities compared with natural human glucagon-like peptide-2: summary statement
T1 construct: expressed in transfected cells; host or cells: HEK-293 cells, transfected and screened by Chongqing Paijin Biotechnology Co. Ltd. The receptor gene was constructed by Shanghai Shengbo Biomedical Technology Co. Ltd
T1 sequence (O95838 1-553): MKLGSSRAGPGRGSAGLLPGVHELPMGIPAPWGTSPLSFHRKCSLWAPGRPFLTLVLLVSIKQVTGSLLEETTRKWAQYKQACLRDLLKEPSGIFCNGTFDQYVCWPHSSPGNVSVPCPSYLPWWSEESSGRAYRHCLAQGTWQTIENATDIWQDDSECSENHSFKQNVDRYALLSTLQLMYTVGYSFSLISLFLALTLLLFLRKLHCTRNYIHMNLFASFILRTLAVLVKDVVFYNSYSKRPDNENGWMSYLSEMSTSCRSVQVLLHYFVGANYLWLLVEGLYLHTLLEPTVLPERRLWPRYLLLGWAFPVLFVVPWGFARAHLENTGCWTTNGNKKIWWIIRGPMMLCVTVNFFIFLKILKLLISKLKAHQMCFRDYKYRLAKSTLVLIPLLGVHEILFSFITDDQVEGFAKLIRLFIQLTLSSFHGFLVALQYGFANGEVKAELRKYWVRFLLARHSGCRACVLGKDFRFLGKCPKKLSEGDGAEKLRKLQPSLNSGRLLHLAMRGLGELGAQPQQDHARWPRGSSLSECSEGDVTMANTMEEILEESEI
Method: HEK-293-GLP-2R cells (HEK-293 cells were purchased from National Collection of Authenticated Cell Cultures, GLP-2R receptor gene sequence was recombinantly constructed by Shanghai Shengbo Biomedical Technology Co. Ltd., and HEK-293-GLP-2R cells were obtained by transfection and screening by Chongqing Paijin Biotechnology Co. Ltd.) were used to determine the in vitro activities of glucagon-like peptide-2 mutants. […] The cells were incubated at 37° C., 5% CO2 for 15 minutes, and then added with a cell lysis buffer. The cell lysates were extracted, and the OD value of cAMP was determined using a cAMP assay kit (RD company).

[1] = test system: small intestine hyperplasia in minor mice; test: Test on promoting small intestinal hyperplasia in minor Kunming mice; assay type: in vivo
Method: Forty minor Kunming mice weighing 10 to 20 g were equally divided into […], 10 mice each group. The control group was subcutaneously administered with the placebo once a day for 9 days, the Ted group was subcutaneously administered at 1 mg/Kg once a day for 9 days, and the PF01 group and the PF04 group were subcutaneously administered at 3 mg/Kg once every three days for a total of 3 times. All experimental animals were weighed before administration. On the 10th day after administration, the body weight was weighed, blood was collected, and small intestine length and weight were determined.

[2] = test system: 5-FU-induced diarrhea and intestinal mucosa injury model; test: Diarrhea and intestinal mucosa injury model caused by 5-FU in rats; assay type: in vivo, SD rats; settings: for Number of animals with diarrhea (denominator): 10 rats each group
Method: Forty adult SD rats weighing 200 to 300 g were equally divided into 4 groups, 10 rats each group. A Model group was subcutaneously administered with the placebo once a day for 9 days, a Ted group was subcutaneously administered at 1 mg/Kg once a day for 9 days, and a PF01 group and a PF04 group were subcutaneously administered at 3 mg/Kg once every three days for a total of 3 times. All rats were intraperitoneally injected with 5-FU at 50 mg/Kg once a day on the 4th day to the 6th day. Diarrhea and body weight changes in rats were recorded every day after the first administration of 5-FU. On the 10th day, body weight was weighed, blood was collected, and jejunum was taken for case sections. Diarrhea was identified based on scores, with 0 indicating no diarrhea, 1 indicating mild diarrhea with feces adhering to the anus, 2 indicating moderate diarrhea with feces adhering to the hind legs and tail, 3 indicating severe diarrhea with feces adhering to the front legs and abdomen, and 4 indicating death. In Table 6, the numerator represents the diarrhea score, and the denominator represents the number of animals with diarrhea.

[3] = cited from earlier work
[4] = cited from earlier work; remark: listed apart in the source
[5] = Pharmacokinetic study in rats (ELISA); assay type: in vivo, SD rats
Method: 10 adult SD rats weighing 200-300 g were equally divided into 2 groups, 5 rats each group. PF01 and PF04 were administered subcutaneously at a single dose of 3 mg/Kg, respectively. Serum samples of all rats were collected before administration and 8 h, 24 h, 48 h, 72 h and 96 h after administration, and plasma concentrations were determined by ELISA.

[6] = Pharmacokinetic study in Cynomolgus macaques (LC-MS/MS, NCA); assay type: in vivo
Method: 4 adult Cynomolgus macaques, half males and half females, were used. PF01 was administered by subcutaneous injection at a single dose of 0.05 mg/Kg. Blood samples were collected before administration and 4 h, 8 h, 12 h, 24 h, 48 h, 72 h, 96 h, 120 h, 192 h and 288 h after administration. The concentrations of PF01 in the samples were determined by LC-MS/MS. The plasma concentration data were analyzed using WinNonlin, a pharmacokinetic data analysis software. […] The t1/2, Cmax, Tmax, AUC, Cl and Vd were calculated using a non-compartmental model (NCA).

[7] = 10th day, Ted 1 mg/Kg sc once a day for 9 days, PF01/PF04 3 mg/Kg sc once every three days, 3 times
[8] = 24 h after the administration of 5-FU
[9] = 48 h after the administration of 5-FU
[10] = 72 h after the administration of 5-FU
[11] = 96 h after the administration of 5-FU
[12] = cynomolgus monkey, in vivo, Cynomolgus macaques, sc single dose of 0.05 mg/Kg

PT01: glucagon-like peptide-2 mutant, SEQ ID NO: 1: HGDGSFSDEMNTILDNLAARDFINWLIQTRITDGGGGSK
in vitro activities compared with natural human glucagon-like peptide-2 (GLP-2R): consistent with the natural human glucagon-like peptide-2

PT02: glucagon-like peptide-2 mutant, SEQ ID NO: 2: HAibDGSFSDEMNTILDNLAARDFINWLIQTRITDGGGGSK (H[Aib]DGSFSDEMNTILDNLAARDFINWLIQTRITDGGGGSK)
in vitro activities compared with natural human glucagon-like peptide-2 (GLP-2R): consistent with the natural human glucagon-like peptide-2
in vitro cell viability relative to that of Teduglutide (GLP-2R; text summary of Table 3, Teduglutide as a standard): comparable to that of Teduglutide

CC[C@H](C)[C@H](NC(=O)[C@H](Cc1ccccc1)NC(=O)[C@H](CC(=O)O)NC(=O)[C@H](CCCNC(=N)N)NC(=O)[C@H](C)NC(=O)[C@H](C)NC(=O)[C@H](CC(C)C)NC(=O)[C@H](CC(N)=O)NC(=O)[C@H](CC(=O)O)NC(=O)[C@H](CC(C)C)NC(=O)[C@@H](NC(=O)[C@@H](NC(=O)[C@H](CC(N)=O)NC(=O)[C@H](CCSC)NC(=O)[C@H](CCC(=O)O)NC(=O)[C@H](CC(=O)O)NC(=O)[C@H](CO)NC(=O)[C@H](Cc1ccccc1)NC(=O)[C@H](CO)NC(=O)CNC(=O)[C@H](CC(=O)O)NC(=O)CNC(=O)[C@@H](N)Cc1c[nH]cn1)[C@@H](C)O)[C@@H](C)CC)C(=O)N[C@@H](CC(N)=O)C(=O)N[C@@H](Cc1c[nH]c2ccccc12)C(=O)N[C@@H](CC(C)C)C(=O)N[C@H](C(=O)N[C@@H](CCC(N)=O)C(=O)N[C@H](C(=O)N[C@@H](CCCCN)C(=O)N[C@H](C(=O)N[C@H](C(=O)N[C@@H](CC(=O)O)C(=O)O)[C@@H](C)O)[C@@H](C)CC)[C@@H](C)O)[C@@H](C)CC [Teduglutide]
Body weight of mice at the end of the experiment [1, 7]: 18.06 ± 0.49 g
Serum citrulline content [1, 7]: 14.47 µg/mL
Small intestine length [1, 7]: 37.4 cm
Small intestine weight [1, 7]: 1.75 g
Body weight of mice before administration ([1]; baseline, before administration): 13.32 ± 0.49 g
Comparison of groups in mice body weight, serum citrulline, small intestine length and small intestine weight ([1]; text summary of Table 4): superior to the control group
Diarrhea score (numerator) [2, 8]: 0/0
Number of animals with diarrhea (denominator) [2, 8]: 0/0
Diarrhea score (numerator) [2, 9]: 4/4
Number of animals with diarrhea (denominator) [2, 9]: 4/4
Diarrhea score (numerator) [2, 10]: 4
Number of animals with diarrhea (denominator) [2, 10]: 3
Diarrhea score (numerator) [2, 11]: 3/3
Number of animals with diarrhea (denominator) [2, 11]: 3/3
Rank of citrulline (CIT) content between groups ([2]; FIG. 7, before chemotherapy, 48 h and 144 h after chemotherapy): citrulline content in the PF01 group>that in the PF04 group>that in the Ted group>that in the Model group
Case sections of jejunum: height of villi and number of crypt cells, rank of groups ([2]; FIG. 8, 10th day): the PF01 group>the PF04 group>the Ted group>the control group
Serum citrulline content 96 h after the first administration of 5-FU ([2]; Table 5, 96 h): 16.50 µg/mL
Serum citrulline content 48 h after the administration of 5-FU ([2]; Table 7, 48 h): 2.04 µg/mL
Serum citrulline content 96 h after the administration of 5-FU ([2]; Table 7, 96 h): 3.53 µg/mL
Serum citrulline content 144 h after the administration of 5-FU ([2]; Table 7, 144 h): 10.37 µg/mL
Serum citrulline content before the administration of 5-FU ([2]; Table 7, before 5-FU): 21.74 µg/mL
Body weight before the first administration of 5-FU ([2]; Ted 1 mg/Kg sc daily 9 days, PF01/PF04 3 mg/Kg sc every three days x3, 5-FU 50 mg/Kg ip day 4-6): 272.46 g
Body weight 24 h after the first administration of 5-FU ([2]; same regimen, 24 h): 274.36 g
Body weight 48 h after the first administration of 5-FU ([2]; same regimen, 48 h): 257.94 g
Body weight 72 h after the first administration of 5-FU ([2]; same regimen, 72 h): 260.95 g
Body weight 96 h after the first administration of 5-FU ([2]; same regimen, 96 h): 275.43 g
half-life in vivo in humans [3]: 2 h
in vivo half-life in rats ([4]; rats): 0.5 h

GLP-2(3-33): hydrolyzed, inactive GLP-2(3-33) formed by dipeptidyl peptidase IV (DGSFSDEMNTILDNLAARDFINWLIQTKITD; Glucagon-like peptide 2; UniProt P01275 148-178, looked up, fragment)
half-life in vivo ([4]; cited reference on catabolism in rats): 0.45 h

PT03: glucagon-like peptide-2 mutant, SEQ ID NO: 3: HGDGSFSDEMNTILDNLAARDFINWLIQTRITDGGGGSGGGGSK
in vitro activities compared with natural human glucagon-like peptide-2 (GLP-2R): consistent with the natural human glucagon-like peptide-2

PT04: glucagon-like peptide-2 mutant, SEQ ID NO: 4: HGDGSFSDEMNTILDNLAARDFINWLIQTHITDGGGGSK
in vitro activities compared with natural human glucagon-like peptide-2 (GLP-2R): consistent with the natural human glucagon-like peptide-2

CC[C@H](C)[C@H](NC(=O)[C@H](Cc1ccccc1)NC(=O)[C@H](CC(=O)O)NC(=O)[C@H](CCCNC(=N)N)NC(=O)[C@H](C)NC(=O)[C@H](C)NC(=O)[C@H](CC(C)C)NC(=O)[C@H](CC(N)=O)NC(=O)[C@H](CC(=O)O)NC(=O)[C@H](CC(C)C)NC(=O)[C@@H](NC(=O)[C@@H](NC(=O)[C@H](CC(N)=O)NC(=O)[C@H](CCSC)NC(=O)[C@H](CCC(=O)O)NC(=O)[C@H](CC(=O)O)NC(=O)[C@H](CO)NC(=O)[C@H](Cc1ccccc1)NC(=O)[C@H](CO)NC(=O)CNC(=O)[C@H](CC(=O)O)NC(=O)CNC(=O)[C@@H](N)Cc1c[nH]cn1)[C@@H](C)O)[C@@H](C)CC)C(=O)N[C@@H](CC(N)=O)C(=O)N[C@@H](Cc1c[nH]c2ccccc12)C(=O)N[C@@H](CC(C)C)C(=O)N[C@H](C(=O)N[C@@H](CCC(N)=O)C(=O)N[C@H](C(=O)N[C@@H](CCCNC(=N)N)C(=O)N[C@H](C(=O)N[C@H](C(=O)N[C@@H](CC(=O)O)C(=O)NCC(=O)NCC(=O)NCC(=O)NCC(=O)N[C@@H](CO)C(=O)N[C@@H](CCCCNC(=O)COCCOCCNC(=O)COCCOCCNC(=O)CC[C@H](NC(=O)CCCCCCCCCCCCCCCCC(=O)O)C(=O)O)C(=O)O)[C@@H](C)O)[C@@H](C)CC)[C@@H](C)O)[C@@H](C)CC [PF01] (H-HGDGSFSDEMNTILDNLAARDFINWLIQTRITDGGGGSK([AEEA-AEEA-γGlu-C18 diacid])-OH)
Cmax ([5]; rat, in vivo, rats, sc single dose of 3 mg/Kg): 67500 ng/mL
half-life ([5]; rat, in vivo, rats, sc single dose of 3 mg/Kg, read-out: T1/2 (converted)): 20.3 h
half-life ([5]; rat, in vivo, summary statement in description, read-out: in vivo half-life in rats (converted)): 21 h
Tmax ([5]; rats, sc single dose of 3 mg/Kg): basically consistent with that of PF04
in vivo half-life, times longer than that of the natural hGLP-2 ([6]; based on T1/2 in Cynomolgus macaques): approximately 100 times
AUC [6, 12]: 21700 ng·h/mL
Cmax [6, 12]: 459 ng/mL
Tmax [6, 12]: 12 h
half-life ([6]; cynomolgus monkey, in vivo, Cynomolgus macaques, sc single dose of 0.05 mg/Kg, read-out: T1/2 (average) (converted)): 30.9 h
half-life ([6]; cynomolgus monkey, in vivo, summary statement in description, read-out: in vivo half-life in cynomolgus monkeys (converted)): 30 h

hGLP-2: human glucagon-like peptide-2, SEQ ID NO: 9: HADGSFSDEMNTILDNLAARDFINWLIQTKITD
half-life in vivo in humans [3]: 0.12 h
